According to paper PMC11148078, “Potent activity of polymyxin B is associated with long-lived super-stoichiometric accumulation mediated by weak-affinity binding to lipid A” (Nature Communications, 2024):
“Also recorded” adds a separate entry of the source. Where two headings read alike, the source gives them in different places. Bridge positions count the residues as written; N and C are the ends. Square brackets hold non-standard residues; d marks the D form. Peptide text beside a SMILES is read from it. * marks the point of attachment. X1 = CC[C@H](C)CCCCC(=O)*; Dab = NCC[C@H](N)C(=O)O

How the values were obtained:
E. coli mcr-1+rifampicin = assay: Rifampicin potentiation / outer membrane permeability, E. coli mcr-1; format: cell-based
Method: (§1) Bacterial strains and plasmids are listed in SI Table S5. LB growth media was prepared according to manufacturer’s instructions and supplemented with 0.2% arabinose and carbenicillin (50 μg/mL) for the strains containing pBAD24-mcr1 plasmid. Cultures were started by inoculating 3 ml LB with 1–2 colonies from fresh overnight plates and grown at 37 °C until in log phase. Modified minimal inhibitory concentration (MIC) assays were performed in 96-well round bottom polystyrene plates (Corning) with a final volume of 100 µl in LB supplemented with tween-80 at 0.0005%. […] Polymyxin B sulfate (TCI Co. Ltd), polymyxin B nonapeptide (PMBN) (Sigma), and brevicidine (Genentech) were diluted directly in the assay plates. Bacteria were diluted in LB with tween-80 0.0005% and added to a final OD600 of 0.0005. Growth was measured via OD600 on a SpectraMax M5 plate reader after overnight static growth at 37 °C with humidity.

wild-type E. coli cells = assay: Whole cell SPR, wild-type E. coli; format: binding
Method: Bacterial strains were grown in LB or LB with 0.2% arabinose and carbenicillin (50 μg/mL) to log phase (OD600 approximately 0.4–0.6), centrifuged for 10 min at 2500 × g (3500 rpm using a tabletop centrifuge), and re-suspended in PBS to a final OD600 of approximately 5. SPR on whole bacterial cells was performed and analyzed as described for OMVs on C1 chip, but with an additional carry-over wash prior to the capture. Regeneration of the chip after whole cell binding also required additional steps ([…] flow rate): (1) PBS supplemented with 32 mM MgCl2 for 120 s, (2) 2.5 M NaCl for 30 s, (3) 0.5% SDS (Desorb 1, Cytiva) for 60 s with carry over controls between.

E. coli WT+rifampicin = assay: Rifampicin potentiation / outer membrane permeability, wild-type E. coli; format: cell-based
Method: as §1

[1] = tested on: LPS (rough-LPS extracted from E. coli F583, Rd mutant); assay: Mechanistic SPR study, purified LPS; format: binding; details: for Rmax normalized by molecular weight ratio PMB:PMBN: LPS surface
Method: OMV-coated and whole cell-coated C1 chips were prepared as already described with the following changes and LPS-coated surfaces were prepared identically but with rough-LPS extracted from E. coli F583 (Rd mutant, Sigma #L6893). For LPS, cloudy colloid suspension (above its CMC, ~1 mg/ml) contains LPS micelles that were injected and captured. For all formats, sample buffer and running buffer were composed of Dulbecco’s phosphate-buffered salt solution containing 0.0005% tween-80 (Sigma), 1 mM calcium and 0.5 mM magnesium (Fisher Scientific), pH 7.4. Analysis and compartment temperatures were both set to 37 °C. Freshly prepared OMV-coated or whole cell-coated sensing surfaces were employed for each injection of polymyxin B while LPS-coated sensing surfaces could be fully regenerated by injecting 50 mM CHAPS. Reversibly bound PMBN could be reinjected over all surfaces without requiring regeneration as it fully dissociated within a few minutes.
Serial doubling dilutions of PMBN were injected from […] over whole cells and OMVs at […] for 1 min (Fig. 3A, B). This was repeated over LPS-coated sensing surfaces and, in this case, serial doubling dilutions of PMBN were injected from 5 mM to 0.625 mM for 30 s at […], immediately prior to injection of […] polymyxin B for 200 s at […] (Fig. 3D).
Fresh sensing surfaces coated with whole cells and OMVs were prepared and 325 nM polymyxin B was injected at […] for 120 s over both. This injection was repeated after a long delay, and without regeneration, in order to allow free sites to become available thereby resulting in two polymyxin B binding curves for each sensing surface (Fig. 3E, F). A fresh LPS-coated surface was prepared and polymyxin B was injected using SCK injection mode over a serial doubling dilution range from 625 nM to 39 nM.
Section 1 - Mechanistic studies of polymyxins
The interaction models introduced here (Eqn (S1-S3)) are annotated in terms of binding of polymyxin B (PMB) to LPS but also apply to any other affinity binding pair. Molar concentrations of bound PMB are converted to SPR response as R = G.MW.[PMB], where MW is the molecular weight of PMB, and G is a mass-to-response conversion factor. A full quantitative interpretation of SPR sensitivity has been reported1. In a general case, a protein concentration of 0.01 (g/L) produces a response of 1 response unit (RU) yielding the proportionality constant G=100 (L/g).
Here, we assume protein is distributed uniformly within a […] thick hydrogel, dissolved in buffer at near physiological salt concentrations in the absence of high concentrations of high refractive index substances, such as glycerol and DMSO. This calibration may be adjusted for variability in the refractive index increment when working with buffers or other classes of molecules such as nucleic acids, polysaccharides, or drug-like molecules. In addition, binding interactions confined to planar sensing surfaces (i.e., no hydrogel matrix) results in a 1.3-fold increased response due to minimal decay in SPR sensitivity when close to the sensing surface (e.g., < 10 nm). Change in protein accumulation over time produces responses that are indicated here by a time subscript (e.g., R(t)). A simple 1:1 model for binding of PMB to LPS to form an affinity complex PMBL is given by the pseudo-first-order model defined by Eqn (S1). dR/dt = (kon.[PMB]i.(Rmax-R(t)) -koff.R(t)) Eqn (S1)
Where R is the SPR response for accumulation of affinity complex PMBL. [PMB]i is the injected concentration of PMB and Rmax is the saturation response assuming full target occupancy. This model assumes that mass transport of PMB within the flow cell, which governs the rate of exchange of PMB between the bulk liquid and the sensing surface, is non-limiting. However, this […]
in the 1:1 two-compartment model in Eqn (S2). dR/dt = (kon.[PMB].(Rmax-R(t)) -koff.R(t)) + kt.([PMB]i(t) – [PMB]) Eqn (S2) […]

[2] = LPS pre-saturated with polymyxin B

CC(C)C[C@@H]1NC(=O)[C@@H](Cc2ccccc2)NC(=O)[C@H](CCN)NC(=O)[C@@H](NC(=O)[C@H](CCN)NC(=O)[C@@H](N)[C@@H](C)O)CCNC(=O)[C@H]([C@@H](C)O)NC(=O)[C@H](CCN)NC(=O)[C@H](CCN)NC1=O [PMBN] (H-T[Dab][Dab][Dab][dF]L[Dab][Dab]T; lactam 3-C)
MIC in presence of rifampicin (E. coli mcr-1+rifampicin): 2500 nM | SPR binding profile (wild-type E. coli cells): exhibited only weak, saw-tooth binding | outer membrane permeabilization / rifampicin potentiation (E. coli WT+rifampicin): still permeabilizes the outer membrane to rifampicin; also recorded: can still permeabilize the outer membrane | MIC in presence of rifampicin (E. coli WT+rifampicin; rifampicin 1.56 µM, LB + 0.0005% tween-80, overnight 37 °C): 78 nM | change in affinity and binding capacity after pre-saturation [1, 2]: two-fold drop in both affinity and binding capacity | fold loss in affinity [1, 2]: 2 fold | fold loss in binding capacity [1, 2]: 2 fold | Rmax normalized by molecular weight ratio PMB:PMBN [1]: 415 RU

CC[C@H](C)CCCCC(=O)N[C@@H](CCN)C(=O)N[C@H](C(=O)N[C@@H](CCN)C(=O)N[C@H]1CCNC(=O)[C@H]([C@@H](C)O)NC(=O)[C@H](CCN)NC(=O)[C@H](CCN)NC(=O)[C@H](CC(C)C)NC(=O)[C@@H](Cc2ccccc2)NC(=O)[C@H](CCN)NC1=O)[C@@H](C)O [Polymyxin B] (X1-[Dab]T[Dab][Dab][Dab][dF]L[Dab][Dab]T; lactam 4-C (inferred); N-terminus assumed)
MIC in presence of rifampicin (E. coli mcr-1+rifampicin): 1 nM | outer membrane permeabilization / rifampicin potentiation (E. coli mcr-1+rifampicin): still potentiated the activity of an antibiotic normally excluded by the outer membrane, rifampicin | SPR binding profile (wild-type E. coli cells): same polymyxin B binding profiles were observed | MIC in presence of rifampicin (E. coli WT+rifampicin): <0.02 nM | Rmax normalized by molecular weight ratio PMB:PMBN [1]: 407 RU | consumption of available LPS ([1]; immediately after polymyxin B saturation): ~ 40% | Kd ([1]; two LPS densities, pre-saturated with polymyxin B, SCK from 625 nM, Eq. S3, (± SE)): 0.127 µM
